Source: patent publication US20220073941A1, “HERBICIDE-RESISTANT CAMELINA SATIVA PLANTS, AND VARIANT CAMELINA ACETOHYDROXYACID SYNTHASE POLYPEPTIDES” (priority 2019, published 2022)
Where “and” joins values, the source holds several entries; their conditions need not be identical. Equal values may be shown once.

Key:
[1] = system: AHAS, enzyme extract of MIDAS™; experiment: AHAS product feedback inhibition assay (leucine, isoleucine, valine); type: biochemical, Camelina sativa; details: for Absorbance at 530 nm (AHAS product feedback inhibition assay, raw data), Avg: average of replicates per experiment; for Absorbance at 530 nm (AHAS product feedback inhibition assay, raw data): individual replicates, experiments 1-3; for % activity (AHAS activity as % of control): control 100 mM pyruvate, no added amino acid, per experiment (Exp. 1-3); for % activity (AHAS activity as % of control), means: means of 3 experiments
Experimental: (§1) Briefly, for each of the three comparators, leaf and stem (petiole) material was bulk-harvested at the 3-4 leaf stage from at least 30 plantlets, snap-frozen in liquid nitrogen, and stored at −80° C. The AHAS in vitro assay was conducted according to the method of Singh et al (1988), with modifications by Yu (2010) and Rustgi (2014). For each comparator, 4 grams of frozen material were ground to a fine powder with a mortar and pestle in liquid nitrogen and homogenized in 1 volume of cold extraction buffer containing 100 mM potassium phosphate buffer (pH7.5), 10 mM sodium pyruvate, 5 mM MgCl2, 100 μM flavin adenine dinucleotide (FAD), and 10% glycerol. Four 2-mL microcentrifuge tubes were used for each comparator. The homogenate was centrifuged at 13,000 rpm for 10 min at 4° C., supernatant collected and re-centrifuged for an additional 10 minutes under the same conditions. For each tube, 1 mL of supernatant was pipetted into a new 2-mL microcentrifuge tube, and protein was precipitated by the addition of 1 mL of saturated ammonium sulfate. The solution was mixed well by vortex and allowed to stand on ice for 20 minutes, then centrifuged at 13,000 rpm at 4° C. The protein pellet was resuspended in 300 μL of reaction buffer containing 50 mM potassium phosphate buffer (pH7.5), 100 mM sodium pyruvate, 10 mM MgCl2, 1 mM EDTA, 10 μM FAD, 100 mM NaCl, and 1 mM thiamine pyrophosphate. Tubes of each comparator were combined, mixed well, kept on ice and immediately used in the AHAS activity and feedback inhibition assays.
(§2) Total protein concentration of the crude extract was determined by the Bradford method (Bradford, 1976). All assays were conducted using 300 μg of total protein each.
(§3) The feedback inhibition assay was performed by combining equal amounts of extract and amino acids leucine, isoleucine, or valine, respectively, in concentrations of 0.1 mM, 1 mM, 10 mM and 100 mM, according to Yu et al. (2010). The reaction mixture contained 50 μL enzyme extract and 50 μL 100 mM sodium pyruvate and inhibitor amino acid. The reaction was incubated at 37° C. for 60 minutes, then stopped and acetolactate converted to acetoin with the addition of 20 μL of 6 N H2SO4 and incubated at 60° C. for 15 minutes. A separate background “blank” was included for each sample group by adding 20 μL of 6 N H2SO4 prior to the addition of the enzyme extracts. Then, 95 μL of 0.55% w/v creatine solution and 95 μL of α-naphthol solution (5.5% w/v in 5 N NaOH) were added and the mixture incubated at 60° C. for a further 15 minutes. After cooling to room temperature for 15 minutes, enzyme activity was determined colorimetrically by reading the absorbance at 530 nm. Three independent experiments were conducted. Experiment 1 and 2 each contained 2 technical replicates, while experiment 3 included 3 technical replicates.

[2] = system: AHAS, enzyme extract of SRS 934; experiment: as above; type: biochemical, Camelina sativa; details: for Absorbance at 530 nm (AHAS product feedback inhibition assay, raw data), Avg: average of replicates per experiment; for Absorbance at 530 nm (AHAS product feedback inhibition assay, raw data): individual replicates, experiments 1-3; for % activity (AHAS activity as % of control): control 100 mM pyruvate, no added amino acid, per experiment (Exp. 1-3); for % activity (AHAS activity as % of control), means: means of 3 experiments
Experimental: as §1, §2, §3

[3] = system: AHAS, enzyme extract of 14CS0851-01-14; experiment: as above; type: biochemical, Camelina sativa; details: for Absorbance at 530 nm (AHAS product feedback inhibition assay, raw data), Avg: average of replicates per experiment; for Absorbance at 530 nm (AHAS product feedback inhibition assay, raw data): individual replicates, experiments 1-3; for sensitivity of AHAS to feedback inhibition, comparison of enzyme extracts: extracts of 14CS0851-01-14, SRS 934 and MIDAS™ compared, 1 mM, 10 mM, 100 mM; for % activity (AHAS activity as % of control): control 100 mM pyruvate, no added amino acid, per experiment (Exp. 1-3); for % activity (AHAS activity as % of control), means: means of 3 experiments
Experimental: as §1, §2, §3

12CS0366 = experiment: Greenhouse dose-response to thifensulfuron-methyl, plant height and dry biomass (Example 6); type: in vivo, Camelina sativa
12CS0365 = experiment: as above; type: in vivo, Camelina sativa
[4] = system: susceptible controls SRS 934, 10CS0048; experiment: Phenotype scoring (resistant/susceptible) 7 d after 2.5 g ai/ha thifensulfuron-methyl (Example 5); type: in vivo, Camelina sativa; details: 7 d after application
Text: (§4) At a thifensulfuron-methyl application rate of 2.5 g ai/ha, plants from parental, F2, BC1F1, and BC4F2 populations could easily be scored into one of two discrete phenotypic classes (R, resistant or S, susceptible) 7 d after herbicide application.

[5] = system: resistant lines 12CS0365, 12CS0366, 13CS0786; experiment: as above; type: in vivo, Camelina sativa
Text: as §4

[6] = 1 mM amino acid final concentration
[7] = 10 mM amino acid final concentration
[8] = 100 mM amino acid final concentration

| Structure (SMILES) | Absorbance at 530 nm (AHAS product feedback inhibition assay, raw data), Avg [1, 6] | Absorbance at 530 nm (AHAS product feedback inhibition assay, raw data) [1, 6] | Absorbance at 530 nm (AHAS product feedback inhibition assay, raw data), Avg [1, 7] | Absorbance at 530 nm (AHAS product feedback inhibition assay, raw data) [1, 7] | Absorbance at 530 nm (AHAS product feedback inhibition assay, raw data), Avg [1, 8] | Absorbance at 530 nm (AHAS product feedback inhibition assay, raw data) [1, 8] | Absorbance at 530 nm (AHAS product feedback inhibition assay, raw data), Avg [2, 6] | Absorbance at 530 nm (AHAS product feedback inhibition assay, raw data) [2, 6] | Absorbance at 530 nm (AHAS product feedback inhibition assay, raw data), Avg [2, 7] | Absorbance at 530 nm (AHAS product feedback inhibition assay, raw data) [2, 7] | Absorbance at 530 nm (AHAS product feedback inhibition assay, raw data), Avg [2, 8] | Absorbance at 530 nm (AHAS product feedback inhibition assay, raw data) [2, 8] | Absorbance at 530 nm (AHAS product feedback inhibition assay, raw data), Avg [3, 6] | Absorbance at 530 nm (AHAS product feedback inhibition assay, raw data) [3, 6] | Absorbance at 530 nm (AHAS product feedback inhibition assay, raw data), Avg [3, 7] | Absorbance at 530 nm (AHAS product feedback inhibition assay, raw data) [3, 7] | Absorbance at 530 nm (AHAS product feedback inhibition assay, raw data), Avg [3, 8] | Absorbance at 530 nm (AHAS product feedback inhibition assay, raw data) [3, 8] | sensitivity of AHAS to feedback inhibition, comparison of enzyme extracts [3] | other results |
| --- | --- | --- | --- | --- | --- | --- | --- | --- | --- | --- | --- | --- | --- | --- | --- | --- | --- | --- | --- | --- |
| CC(C)C[C@H](N)C(=O)O [leucine] | 0.2245 and 0.180 and 0.106 | 0.215 and 0.234 and 0.198 and 0.162 and 0.102 and 0.105 and 0.112 | 0.1775 and 0.166 and 0.093 | 0.178 and 0.177 and 0.181 and 0.150 and 0.096 (2×) and 0.088 | 0.148 and 0.152 and 0.090 | 0.142 and 0.154 and 0.153 and 0.150 and 0.078 and 0.096 (2×) | 0.204 and 0.192 and 0.089 | 0.2 and 0.208 and 0.225 and 0.158 and 0.097 and 0.085 and 0.086 | 0.1785 and 0.162 and 0.085 | 0.17 and 0.187 and 0.163 and 0.140 and 0.092 and 0.091 and 0.071 | 0.1475 and 0.136 and 0.080 | 0.154 and 0.141 and 0.167 and 0.104 and 0.084 and 0.068 and 0.089 | 0.204 and 0.149 and 0.094 | 0.214 and 0.194 and 0.162 and 0.136 and 0.079 and 0.099 and 0.105 | 0.174 and 0.136 and 0.064 | 0.183 and 0.165 and 0.151 and 0.120 and 0.066 and 0.061 and 0.067 | 0.122 and 0.056 | 0.146 and 0.14 and 0.138 and 0.105 and 0.051 and 0.060 and 0.057 | no significant difference |  |
| CC(C)[C@H](N)C(=O)O [valine] | 0.2475 and 0.203 and 0.117 | 0.252 and 0.243 and 0.239 and 0.166 and 0.115 and 0.116 and 0.122 | 0.214 and 0.191 and 0.112 | 0.205 and 0.223 and 0.217 and 0.113 and 0.110 and 0.112 | 0.1815 and 0.166 and 0.089 | 0.174 and 0.189 and 0.171 and 0.161 and 0.084 and 0.091 and 0.092 | 0.231 and 0.181 and 0.094 | 0.236 and 0.226 and 0.198 and 0.163 and 0.086 and 0.098 and 0.100 | 0.184 and 0.179 and 0.093 | 0.186 and 0.182 and 0.206 and 0.151 and 0.091 (2×) and 0.096 | 0.1625 and 0.142 and 0.070 | 0.168 and 0.157 and 0.184 and 0.100 and 0.071 and 0.072 and 0.067 | 0.213 and 0.207 and 0.080 | 0.216 and 0.21 and 0.227 and 0.187 and 0.079 and 0.080 and 0.082 | 0.196 and 0.178 and 0.073 | 0.203 and 0.189 and 0.190 and 0.166 and 0.057 and 0.84 and 0.80 | 0.1485 and 0.155 and 0.057 | 0.155 and 0.142 and 0.176 and 0.133 and 0.054 and 0.061 and 0.056 | no significant difference |  |
| COC(=O)c1sccc1S(=O)(=O)NC(=O)Nc1nc(C)nc(OC)n1 [thifensulfuron-methyl] |  |  |  |  |  |  |  |  |  |  |  |  |  |  |  |  |  |  |  | Ratio of ED50 biomass values, estimate (12CS0366; 12CS0366/13CS0786): 0.0968; Ratio of ED50 height values, estimate (12CS0366; 12CS0366/13CS0786): 0.20; Ratio of ED50 biomass values, estimate (12CS0366; 12CS0366/SRS 934): 99.70; Ratio of ED50 height values, estimate (12CS0366; 12CS0366/SRS 934): 36.9; Ratio of ED50 biomass values, estimate (12CS0365; 12CS0365/12CS0366): 0.08; Ratio of ED50 height values, estimate (12CS0365; 12CS0365/12CS0366): 0.35; Ratio of ED50 biomass values, estimate (12CS0365; 12CS0365/13CS0786): 0.008; Ratio of ED50 height values, estimate (12CS0365; 12CS0365/13CS0786): 0.02; Ratio of ED50 biomass values, estimate (12CS0365; 12CS0365/SRS 934): 7.93; Ratio of ED50 height values, estimate (12CS0365; 12CS0365/SRS 934): 12.72; phenotype after herbicide application [4]: either killed or greatly damaged; phenotype after herbicide application [5]: consistently produced a resistant phenotype |
| CC(C)C[C@H](N)C(=O)O [Leu] |  |  |  |  |  |  |  |  |  |  |  |  |  |  |  |  |  |  |  | % activity (AHAS activity as % of control) ([1]; 1 mM final concentration): 50.4% and 63.2% and 45.2%; % activity (AHAS activity as % of control), means ([1]; 1 mM final concentration): 52.9%; % activity (AHAS activity as % of control) ([1]; 10 mM final concentration): 39.8% and 58.2% and 39.6%; % activity (AHAS activity as % of control), means ([1]; 10 mM final concentration): 45.9%; % activity (AHAS activity as % of control) ([1]; 100 mM final concentration): 33.2% and 53.3% and 38.1%; % activity (AHAS activity as % of control), means ([1]; 100 mM final concentration): 41.6%; % activity (AHAS activity as % of control) ([2]; 1 mM final concentration): 51.5% and 83.5% and 45.2%; % activity (AHAS activity as % of control), means ([2]; 1 mM final concentration): 60.1%; % activity (AHAS activity as % of control) ([2]; 10 mM final concentration): 45.1% and 70.4% and 43.0%; % activity (AHAS activity as % of control), means ([2]; 10 mM final concentration): 52.8%; % activity (AHAS activity as % of control) ([2]; 100 mM final concentration): 37.2% and 59.1% and 40.6%; % activity (AHAS activity as % of control), means ([2]; 100 mM final concentration): 45.7%; % activity (AHAS activity as % of control) ([3]; 1 mM final concentration): 48.8% and 63.7% and 57.9%; % activity (AHAS activity as % of control), means ([3]; 1 mM final concentration): 56.8%; % activity (AHAS activity as % of control) ([3]; 10 mM final concentration): 41.6% and 58.1% and 39.5%; % activity (AHAS activity as % of control), means ([3]; 10 mM final concentration): 46.4%; % activity (AHAS activity as % of control) ([3]; 100 mM final concentration): 34.2% and 52.1%; % activity (AHAS activity as % of control), means ([3]; 100 mM final concentration): 40.2% |
